According to article PMC4997316, “A ruthenium polypyridyl intercalator stalls DNA replication forks, radiosensitizes human cancer cells and is enhanced by Chk1 inhibition” (Scientific Reports, 2016):

Tests used:
HeLa cells [1] = assay: quantification of apoptotic morphology (pyknosis/karyorrhexis); type: cell-based, human; conditions: single-agent treatment, 48 h (1 40 μM; CHIR-124 500 nM)
Protocol: With this in mind, and considering the strong Chk1 activation in response to 1, HeLa cervical cancer cells, which are […][44], were exposed to a combination of 1 plus the Chk1 inhibitor CHIR-124[45] and the impact of co-treatment upon cell viability determined. A non-cytotoxic dose of 500 nM CHIR-124 was used and results were compared to single-agent treatment. […] Minimal enhancement of the anti-proliferative effect of 2 by CHIR-124 was observed (Fig. S15b), in agreement with 2 operating via a Chk1-independent mechanism.
Figure 5 Concurrent treatment of [Ru(dppz)2(PIP)]^2+ plus the Chk1 inhibitor CHIR-124 potentiates synergistic apoptosis in cancer cells. (a) Viability of HeLa (cervical cancer) or hSAEC1-KT (normal epithelial) cells after incubation with 1 in the absence or presence of Chk1 inhibitor CHIR-124 (500 nM) for 48 h constant exposure. (b) Morphological evidence for apoptosis (pyknosis/karyorrhexis, arrows) in HeLa cells treated with 40 μM 1 plus CHIR-124 for 48 h. Scale bars = 20 μm. (c) Quantification of apoptotic cells for experimental conditions as shown in (b). Equivalent results for 2 (40 μM, 48 h) included. Data mean of two independent experiments +/− SD. […] (f) Quantification of γH2AX foci from cells treated as in (e). […] Minimum of 150 cells counted per experiment. […]

HeLa cells [2] = assay: cell-cycle analysis by PI flow cytometry; type: cell-based, human; conditions: cisplatin 10 μM, 24 h (Fig. 4c)
Protocol: Figure 4 [Ru(dppz)2(PIP)]^2+ induces Chk1 checkpoint kinase activation and G1-S cell-cycle arrest. […] See SI for densitometry. (c) Cell-cycle distributions of HeLa cells incubated with DMSO (0.2%), 1 or 2 at the stated concentrations and time. DNA content was quantified using propidium iodide (PI) and analysed by flow cytometry. […] Data mean of three independent experiments +/− SD. […] They are copied as bare numbers, left to right. / The gate numbers in panel c are very small, so 3, 5, 6, 8 and 9 cannot be told apart with certainty. All the values below are best readings. / DMSO: 0.86, 57.4, 22.5, 16.8 uncertain / 1 (40 μM, 3 h): 0.46, 72.7, 13.5, 8.77 uncertain / 1 (40 μM, 8 h): 1.69, 73.2, 15.3, 3.6 uncertain / 1 (40 μM, 24 h): 1.2, 72.9, 15.8, 6.47 uncertain. […] 32.4 is partly overlapped by the peak line.
Cells were washed with PBS and detached using Trypsin. After centrifugation at 1000 rpm for 5 min, cells were fixed in cold 70% ethanol for 30 mins, centrifuged and re-suspended in PBS. Samples were stained using 10 μg/ml propidium iodide (PI) and 200 μg/ml RNAase A for 30 mins before FACS analysis using a Biosciences LSRII Flow Cytometer. A minimum of 10,000 cells were counted for each sample and data were processed using FloJo software. […]

MCF7 breast cancer cells = assay: MTT proliferation assay, MCF7; type: cell-based, human; conditions: 24 h proliferation assay
Protocol: (§1) (LC3 = Microtubule-associated protein light chain 3) (Fig. 2b, bottom).
(§2) Cells were seeded in 96 well plates at 20,000 cells/well, allowed to proliferate for 24 h before treatment as described in the main text. 0.5 mg ml^−1 MTT (thiazolyl blue tetrazolium bromide) dissolved in serum-free media was added for 60 minutes and the formazan product eluted using acidified isopropanol. The absorbance at 540 nm was quantified by plate reader (reference wavelength 650 nm). The metabolic activity of the cell population was determined as a percentage of a negative (solvent) control.

[3] = system: HeLa cervical cancer cells; assay: MTT proliferation assay, HeLa; type: cell-based, human; conditions: 24 h proliferation assay
Protocol: as §1, §2

[4] = system: primary human foreskin fibroblasts (HFF); assay: MTT proliferation assay, HFF; type: cell-based; conditions: 24 h proliferation assay
Protocol: as §1, §2

Structure (SMILES)	morphological evidence of apoptosis (pyknosis/karyorrhexis) (HeLa cells [1])	cells with sub-G1 DNA content (HeLa cells [2])	IC50 (MCF7 breast cancer cells)	IC50 [3]	IC50 [4]	IC50 (MCF7 breast cancer cells; Homo sapiens, MCF7, 24 h)	IC50 ([3]; Homo sapiens, HeLa, 24 h)	IC50 ([4]; Homo sapiens, Fibroblast, 24 h)
O=c1[nH]c2ccc(Cl)cc2c(N[C@@H]2CN3CCC2CC3)c1-c1nc2ccccc2[nH]1 [CHIR-124, reference compound]	< 5%							
N.N.[Cl][Pt][Cl] [Cisplatin, cis-diamminedichloroplatinum(II)]		~ 30%	11 µM	9 µM	> 100 µM			
O=C1c2c(O)ccc(O)c2C(=O)c2c(NCCNCCO)ccc(NCCNCCO)c21 [MX, mitoxantrone]			3.6 µM	3 µM	4.2 µM	< 5 µM	< 5 µM	< 5 µM
